Data: patent US20100160445A1, “Synergistic Mixtures of OPP and DGH” (priority 2002, published 2010)
Structures can show the parent of a compound that is named as a salt. Where two headings read alike, the source gives them in different places.

Test system: mixed inoculum of bacteria
Assay: MIC and synergy (K) in nutrient broth, microtiter plates
Assay type: cell-based
Experimental: Stock solutions of each product were prepared in sterile distilled water. Synergism was measured by the method first described by F. C. Kull, P. C. Eisman, H. D. Sylwestrowicz and R. L. Mayer in Applied Microbiology, 9, 538-41 ([…]). This manner of determining synergism has been widely used and is industrially acceptable. It is believed that the specified method is sufficient in explaining the process. However for a further description, reference can be made to U.S. Pat. No. 3,231,509 and its file history, where this type of data was considered acceptable.
• 1. Incubator capable of maintaining a variable temperature range (25-45 C) • 2. Samples of each biocide or test compound to be examined • 3. Microtiter plates—96 well with lid, sterile. • 4. 8-12 channel micropipetting device capable of pipetting 0-250 ul volumes • 5. Micropipette tips capable of holding up to 250 ul volumes • 6. Sterile microbiological culture broth. Trypticase Soy Broth (TSB) or Nutrient Broth (NB) is recommended for bacteria and Sabouraud Maltose Broth (SMB) or Sabouraud Dextrose Broth (SDB) is recommended for yeasts and molds. In the case of this particular study the microbiological culture medium was Nutrient Broth at pH 7.0, 8.0 and 9.0. • 7. Pure cultures of microorganisms of choice grown on appropriate agar medium • 8. Sterile distilled water • 9. 100 mL volumetric flasks (one for each biocide to be tested) • 10. Sterile 10 mL tubes of Phosphate buffer (Butterfield's buffer pH 7.2+/−0.2). Contains purified water, monobasic potassium phosphate and sodium hydroxide for pH adjustment. • 11. Sterile cotton swabs • 12. 0.5 MacFarland Turbidity Standard
The day before testing, perform a streak plate of each organism to be tested on an appropriate agar medium (Trypticase Soy Agar). Organisms tested in this study were: Wild strain bacteria isolated from previously contaminated industrial systems and which were identified as: Pseudomonas sp., Escherchia coli , Enterobacter sp., Alcaligenes sp. and Alcaligenes faecalis. On the day of the test, use a sterile cotton swab to harvest some of the growth. Place swab into a tube containing 10 mL sterile phosphate buffer. Compare and adjust the turbidity of the organisms in the tube to 1×10^8 cfu/mL using a 0.5 MacFarland Turbidity Standard. Dilute the 10 mL tube into 90 mL of sterile 2× nutrient broth at pH 7.0, 8.0 and 9.0.
1. Design the layout of the microtiter plates based on the number of organisms to test and the number of biocides and desired concentrations to test. A separate microtiter plate is required for testing each biocide alone, in addition to the combination microtiter plate. 2. Prepare a working stock solution of each biocide to be tested. For the combination microtiter plate, the working stock solution of Biocide A will be 8× the concentration desired in the first well of the combination microtiter plate. The working stock solution of Biocide B will be 4× the concentration desired in the first well of the combination microtiter plate. For the alone microtiter plates, the working stock solutions of Biocide A and Biocide B will both be 4× the concentration desired in the first well of the single biocide microtiter plates.
Dodecylguanidine hydrochloride: (For combination plates) A solution of this product which is 35% active, was made as follows: […]=8000 ppm active=8000/0.35=22,857 ppm, 2.28 g into 100 mL sterile diH2O. Levels to test are: 1000 ppm, 500 ppm, 250 ppm, 125 ppm, 62.5 ppm, 31.2 ppm, 15.6 ppm, 7.8 ppm, 3.9 ppm, 1.95 ppm
Ortho-PhenylPhenol: (For combination plates) Make a solution of this product which is 99% active, 4×125=500 ppm active=500/0.99=505 ppm, 0.05 g into 100 mL MeOH and sterile diH2O. Level to test is 125 ppm.
3. Place 50 ul of sterile distilled water in all of the rows in columns 1 through 10, and 100 ul of sterile distilled water in all of the rows in columns 11 and 12 of the 96 well combination microtiter plate. […]

Question: How did the MIC (pH 7, read-out: MIC, biocide alone) turn out when `CCCCCCCCCCCCNC(=N)N` [DGH, Dodecylguanidine Hydrochloride] was run?
Answer: Its MIC is 62.5 µg/mL.

Question: And the “Synergy Index” value (pH 7.0, 62.5 ppm DGH alone (100:0))?
Answer: The value was 1.00.

Question: What about the MIC (pH 8, read-out: MIC, biocide alone) of the same molecule?
Answer: The MIC was 15.6 µg/mL.

Question: What about the “Synergy Index” value (pH 8.0, 15.6 ppm DGH alone (100:0)) of the same molecule?
Answer: Its value is 1.00.

Question: And the MIC (pH 9, read-out: MIC, biocide alone)?
Answer: The MIC was 15.6 µg/mL.

Question: What about the “Synergy Index” value (pH 9.0, 15.6 ppm DGH alone (100:0)) of the same molecule?
Answer: The value was 1.00.
